Here are results for twelve compounds from ChEMBL document CHEMBL3286185, “Constituents of the roots of Clausena lansium and their potential anti-inflammatory activity” (J Nat Prod, 2014).

A short description of assay [1]: Antiinflammatory activity in human neutrophil assessed as inhibition of FMLP/CB-induced elastase release for 5 mins. In kind it is functional, cell-based.
Assay [2] in a line: Antiinflammatory activity in human neutrophil assessed as inhibition of FMLP/CB-induced superoxide anion generation pretreated for 5 mins by spectrophotometry. In kind it is functional, cell-based.

What is called IC50 is the concentration that inhibits the measured activity by half. Regarding `CC(C)=CCC/C(C)=C/COc1c2occc2cc2ccc(=O)oc12`, the values for the IC50 in assay [1] and in assay [2] were > 10 µM and 1.9 µM, respectively.

On to `CC(C)=CCc1c(C=O)cc(O)c2[nH]c3ccccc3c12`, for which the figures for the IC50 in assay [1] and in assay [2] were 2 µM and > 10 µM, respectively.

Consider `C/C(=C\COc1c2occc2cc2ccc(=O)oc12)C[C@H]1C[C@H](C)C(=O)O1`, for which the IC50 in assay [1] was > 10 µM; in assay [2], 8.4 µM.

Regarding `CC1=C[C@H](C/C(C)=C\COc2c3occc3cc3ccc(=O)oc23)OC1=O`, the IC50 in assay [1] is > 10 µM; in assay [2], 6.1 µM.

For `COC(=O)c1ccc2[nH]c3ccccc3c2c1`, the 50% inhibitory concentration (IC50) in assay [1] was > 10 µM; in assay [2], 4.3 µM.

For `COc1ccc2[nH]c3cc(OC)c(C=O)cc3c2c1` [GLYCOZOLIDAL], the IC50 in assay [1] was > 10 µM; in assay [2], 4.6 µM.

In the case of `CC(C)=CCOc1c2ccoc2cc2oc(=O)ccc12` [ISOIMPERATORIN], the IC50 in assay [1] was > 10 µM; in assay [2], 4.2 µM.

For the compound `O=c1cc(N2CCOCC2)oc2c(-c3ccccc3)cccc12` [LY-294002], the IC50 in assay [1] is 1.5 µM; in assay [2], 1 µM.

With `COc1cc(C=O)cc2c1[nH]c1ccccc12` [MURRAYANINE], the figures for the IC50 in assay [1] and in assay [2] were 3.9 µM and 3.5 µM, respectively.

As to `O=Cc1cc(O)c2[nH]c3ccccc3c2c1` [O-DEMETHYLMURRAYANINE], the IC50 was determined as 6.9 µM in assay [1] and 3.5 µM in assay [2].

Regarding `CC(C)=CCc1c(O)ccc2ccc(=O)oc12` [OSTHENOL], the values for the IC50 in assay [1] and in assay [2] were > 10 µM and 2.6 µM, respectively.

For `CC(C)=CCOc1c2occc2cc2ccc(=O)oc12` [PENTOSALEN], the IC50 in assay [1] is > 10 µM; in assay [2], 3.5 µM.
